Reference: patent US8192962B2, “Processes for detecting toxic substances” (Daikin Industries, Ltd., priority 2001, dated 2012)

Tested on: Mitochondria-located protein genes
Assay: DNA chip mRNA expression in yeast, mitochondria-located protein genes (Table 2)
Type: cell-based, Saccharomyces cerevisiae S288C
Conditions: cells incubated two hours with the chemical substance
How it was run: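 Whole-genome yeast DNA chip hybridization (65° C., >12 h) of Cy-labeled cDNA from S288C cells exposed 2 h at 25° C. to a sub-lethal toxicant dose in YPD; value is intensity relative to chemical-free control.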

Compound: COc1cc(CNC(=O)CCCCC=CC(C)C)ccc1O [(12), 8-methyl-N-vanillyl-6-nonenamide]
- The level of expressed mRNA in the presence of chemical substance/The level of expressed mRNA in the absence of chemical substance (yeast gene YJR121W): 0.8
- The level of expressed mRNA in the presence of chemical substance/The level of expressed mRNA in the absence of chemical substance (yeast gene YKL003C): 0.7
- The level of expressed mRNA in the presence of chemical substance/The level of expressed mRNA in the absence of chemical substance (yeast gene YKL016C): 1.0
- The level of expressed mRNA in the presence of chemical substance/The level of expressed mRNA in the absence of chemical substance (yeast gene YKL141W): 0.8
- The level of expressed mRNA in the presence of chemical substance/The level of expressed mRNA in the absence of chemical substance (yeast gene YKL142W): 1.9
- The level of expressed mRNA in the presence of chemical substance/The level of expressed mRNA in the absence of chemical substance (yeast gene YKL148C): 0.8
- The level of expressed mRNA in the presence of chemical substance/The level of expressed mRNA in the absence of chemical substance (yeast gene YKL170W): 0.8
- The level of expressed mRNA in the presence of chemical substance/The level of expressed mRNA in the absence of chemical substance (yeast gene YKL194C): 0.6
- The level of expressed mRNA in the presence of chemical substance/The level of expressed mRNA in the absence of chemical substance (yeast gene YKR066C): 0.9
- The level of expressed mRNA in the presence of chemical substance/The level of expressed mRNA in the absence of chemical substance (yeast gene YLL041C): 0.8
- The level of expressed mRNA in the presence of chemical substance/The level of expressed mRNA in the absence of chemical substance (yeast gene YLR038C): 0.6
- The level of expressed mRNA in the presence of chemical substance/The level of expressed mRNA in the absence of chemical substance (yeast gene YLR259C): 0.7
- The level of expressed mRNA in the presence of chemical substance/The level of expressed mRNA in the absence of chemical substance (yeast gene YLR295C): 0.5
- The level of expressed mRNA in the presence of chemical substance/The level of expressed mRNA in the absence of chemical substance (yeast gene YLR304C): 1.0
- The level of expressed mRNA in the presence of chemical substance/The level of expressed mRNA in the absence of chemical substance (yeast gene YLR348C): 0.9
- The level of expressed mRNA in the presence of chemical substance/The level of expressed mRNA in the absence of chemical substance (yeast gene YLR395C): 0.6
- The level of expressed mRNA in the presence of chemical substance/The level of expressed mRNA in the absence of chemical substance (yeast gene YML054C): 1.8
- The level of expressed mRNA in the presence of chemical substance/The level of expressed mRNA in the absence of chemical substance (yeast gene YML120C): 0.9
- The level of expressed mRNA in the presence of chemical substance/The level of expressed mRNA in the absence of chemical substance (yeast gene YML129C): 0.8
- The level of expressed mRNA in the presence of chemical substance/The level of expressed mRNA in the absence of chemical substance (yeast gene YMR023C): 0.7
- The level of expressed mRNA in the presence of chemical substance/The level of expressed mRNA in the absence of chemical substance (yeast gene YMR035W): 0.5
- The level of expressed mRNA in the presence of chemical substance/The level of expressed mRNA in the absence of chemical substance (yeast gene YMR083W): 0.7
- The level of expressed mRNA in the presence of chemical substance/The level of expressed mRNA in the absence of chemical substance (yeast gene YMR089C): 0.8
- The level of expressed mRNA in the presence of chemical substance/The level of expressed mRNA in the absence of chemical substance (yeast gene YMR152W): 1.3
- The level of expressed mRNA in the presence of chemical substance/The level of expressed mRNA in the absence of chemical substance (yeast gene YMR203W): 0.7
- The level of expressed mRNA in the presence of chemical substance/The level of expressed mRNA in the absence of chemical substance (yeast gene YMR267W): 0.8
- The level of expressed mRNA in the presence of chemical substance/The level of expressed mRNA in the absence of chemical substance (yeast gene YNL055C): 1.7
- The level of expressed mRNA in the presence of chemical substance/The level of expressed mRNA in the absence of chemical substance (yeast gene YNL071W): 1.3
- The level of expressed mRNA in the presence of chemical substance/The level of expressed mRNA in the absence of chemical substance (yeast gene YNL073W): 0.7
- The level of expressed mRNA in the presence of chemical substance/The level of expressed mRNA in the absence of chemical substance (yeast gene YNL104C): 1.1
- The level of expressed mRNA in the presence of chemical substance/The level of expressed mRNA in the absence of chemical substance (yeast gene YNL256W): 0.6
- The level of expressed mRNA in the presence of chemical substance/The level of expressed mRNA in the absence of chemical substance (yeast gene YOL096C): 1.2
- The level of expressed mRNA in the presence of chemical substance/The level of expressed mRNA in the absence of chemical substance (yeast gene YOR020C): 0.8
- The level of expressed mRNA in the presence of chemical substance/The level of expressed mRNA in the absence of chemical substance (yeast gene YOR037W): 1.2
- The level of expressed mRNA in the presence of chemical substance/The level of expressed mRNA in the absence of chemical substance (yeast gene YOR100C): 0.8
- The level of expressed mRNA in the presence of chemical substance/The level of expressed mRNA in the absence of chemical substance (yeast gene YOR130C): 0.9
- The level of expressed mRNA in the presence of chemical substance/The level of expressed mRNA in the absence of chemical substance (yeast gene YOR142W): 0.8
- The level of expressed mRNA in the presence of chemical substance/The level of expressed mRNA in the absence of chemical substance (yeast gene YOR150W): 0.8
- The level of expressed mRNA in the presence of chemical substance/The level of expressed mRNA in the absence of chemical substance (yeast gene YOR176W): 1.3
- The level of expressed mRNA in the presence of chemical substance/The level of expressed mRNA in the absence of chemical substance (yeast gene YOR187W): 0.8
- The level of expressed mRNA in the presence of chemical substance/The level of expressed mRNA in the absence of chemical substance (yeast gene YOR316C): 1.1
- The level of expressed mRNA in the presence of chemical substance/The level of expressed mRNA in the absence of chemical substance (yeast gene YPL040C): 0.9
- The level of expressed mRNA in the presence of chemical substance/The level of expressed mRNA in the absence of chemical substance (yeast gene YPL134C): 0.8
- The level of expressed mRNA in the presence of chemical substance/The level of expressed mRNA in the absence of chemical substance (yeast gene YPL135W): 1.1
- The level of expressed mRNA in the presence of chemical substance/The level of expressed mRNA in the absence of chemical substance (yeast gene YPL215W): 0.7
- The level of expressed mRNA in the presence of chemical substance/The level of expressed mRNA in the absence of chemical substance (yeast gene YPL262W): 1.1
- The level of expressed mRNA in the presence of chemical substance/The level of expressed mRNA in the absence of chemical substance (yeast gene YPR024W): 0.8
- The level of expressed mRNA in the presence of chemical substance/The level of expressed mRNA in the absence of chemical substance (yeast gene YPR037C): 0.9
- The level of expressed mRNA in the presence of chemical substance/The level of expressed mRNA in the absence of chemical substance (yeast gene YPR047W): 0.9
- The level of expressed mRNA in the presence of chemical substance/The level of expressed mRNA in the absence of chemical substance (yeast gene YPR134W): 0.9
